From US9131687B2, “Roseobacticides and uses thereof” (PRESIDENT AND FELLOWS OF HARVARD COLLEGE, priority 2010, dated 2015)
Where “and” joins values, the source holds several entries; their conditions need not be identical. Equal entries are not always repeated. Where two headings read alike, the source gives them in different places.

Legend:
[1] = test system: P. gallaeciensis BS107; assay: Elicitation of roseobacticide production, HPLC-MS; type: cell-based, Phaeobacter gallaeciensis BS107; details: for secondary metabolite production by HPLC-MS: P. gallaeciensis BS107 incubated with elicitor; for EC50: Phaeobacter gallaeciensis
Procedure: (§1) Roseobacter (Phaeobacter gallaeciensis BS107, Ruegeria sp. R11 and Silicibacter pomeroyi DSS3) and other marine strains (see Table 4) were streaked out from frozen stocks and maintained on Marine Broth (Difco 2216) supplemented with 1.5% agar and incubated at 30° C. for two days. A 50 mL test tube containing 5 mL of ½ strength yeast extract, tryptone and sea salt medium (YTSS, per L: 2 g yeast extract, 1.25 g tryptone, 20 g sea salt) was inoculated with each strain and grown overnight at 30° C. on a horizontal rotating drum fermenter. A 500 mL Erlenmeyer flask containing 50 mL of YTSS medium and 0-3 mM pCA was inoculated with 0.5 mL of the overnight culture and incubated at 160 rpm and 30° C. for 3 d. After 3 d, each culture was extracted once with an equal volume of ethyl acetate, dried in vacuo, resuspended in methanol and analyzed by HPLC-MS as described above.
Preparative-scale (2-8 L) cultivation of P. gallaeciensis BS107 (or other roseobacter strains) was carried out in half-strength yeast extract-tryptonesea salt (YTSS) medium, which consists of (per L): 20 g Sigma sea salt, 2 g yeast extract, and 1.25 g tryptone. P. gallaeciensis BS107 (or other roseobacter strains) were streaked out from frozen culture stocks and maintained on Marine Broth agar plates (Difco 2216) at 30° C. Overnight cultures were initiated by inoculating 5 mL YTSS medium in 15 mL culture tubes and shaking these overnight at 250 rpm and 30° C. A 0.5 L Erlenmeyer flask containing 50 mL YTSS medium was inoculated with 0.5 mL of the overnight culture and grown for 12-18 h at 30° C. and 160 rpm. Large 4 L Erlenmeyer flasks, each containing 0.4 L YTSS medium, were inoculated with 4 mL of the overnight culture and supplemented with 1 mM of each of the elicitors (14-18). The cultures were grown for 3 d at 30° C. and roseobacticides purified as described below.
Eight to ten 0.25 L Erlenmeyer flasks each containing 25 mL of YTSS medium and a range of elicitor concentrations (between 0 and 1.2 mM) were inoculated with 0.25 mL of an overnight P. gallaeciensis BS107 culture prepared as described above. These were grown at 30° C. and 160 rpm. After 3 d, each culture was extracted twice with 25 mL of EtOAc. The organic phase was combined, dried over Na2SO4, and subsequently dried in vacuo. The residue was resuspended in 0.3 mL MeOH and analyzed by HPLC-MS as described above. The amount of roseobacticide B (7) produced, which was quantified by massion extraction ([M+H]^+=269), was plotted against the concentration of the elicitor. The maximal amount of 7 was normalized to 100%, and the EC50, the elicitor concentration where production of 7 was half-maximal, was obtained by fitting the data to equation 1, where Bmax and Bmin are the maximal (˜100%) and minimal (˜0%) amounts of 7 and p is a Hill slope parameter to account for variations in the slope. Bmax and Bmin were allowed to vary to obtain the optimal fit as judged by the R^2 correlation value.

[2] = test system: Bacillus subtilis 3610; assay: IC50 of Roseobacticide A against selected bacterial strains (disc diffusion / 96 well plate); type: cell-based
Procedure: (§2) Selected bacterial strains (see Table 4) were tested against Roseobacticide A using the disc diffusion assay (Gauvreau, D. & Waring, M., 1982, J. Appl. Microbiol. Biotechnol. 115:104-110). Overnight cultures of each test strain in YTSS were diluted 1000-fold into YTSS containing 0.7% agar and poured into standard Petri dish plates. Blank paper discs (8 mm, Fisher Scientific) were loaded with 50 μg of phaeobactin A and placed on top of the agar. The plates were incubated at 30° C. for 12-24 h and the presence or absence of an inhibition zone was monitored visually. Ampicillin (0.5 μg) and MeOH were used as positive and negative controls, respectively. In addition, the assay was carried out in 96 well plates according to the 2003 guidelines of the Clinical and Laboratory Standards Institute (CLSI, formerly NCCLS) with minor changes.
(§3) Roseobacters were grown and tested in YTSS medium, B. subtilis 3610 in LB, and P. tunicate D2 in Marine Broth (Difco 2216). Inocula for each test organism were prepared by suspending a colony from an agar plate into 5 mL of YTSS, LB, or Marine Broth in 15 mL bacterial culture tubes. These were grown overnight, and then adjusted to 1×10^8 cells/mL. These cell suspensions were used as inocula for 96 well plate assays: 10 μL of inoculum, corresponding to 1×10^6 cells was added to 90 μL of the appropriate medium and supplemented with 10 μL medium (negative control), 10 μL of MeOH (negative control), 10 μL of 0.5 mg/mL, or 0.25 mg/mL of Roseobacticide A. The assay against each test strain was carried out in duplicate. The plate was incubated without shaking for 24 hours at 30° C., and the OD650 nm determined on a Molecular Devices 96 well plate reader. […] The OD650 nm for the wells containing Roseobacticide A in all each cases was between 80-100% of the value determined for the respective negative controls.

[3] = test system: Phaeobacter gallaeciensis 2.10; assay: as above; type: cell-based
Procedure: as §2, §3

[4] = test system: Phaeobacter gallaeciensis BS107; assay: as above; type: cell-based
Procedure: as §2, §3

[5] = test system: Pseudoalteromonas tunicata D2; assay: as above; type: cell-based
Procedure: as §2, §3

[6] = test system: Reugeria sp. R11; assay: as above; type: cell-based
Procedure: as §2, §3

[7] = test system: Silicibacter pomeroyi DSS3; assay: as above; type: cell-based; details: Ruegeria pomeroyi
Procedure: as §2, §3

[8] = test system: Silicibacter sp. TM1040; assay: as above; type: cell-based
Procedure: as §2, §3

[9] = test system: Vibrio anguillarum; assay: as above; type: cell-based
Procedure: as §2, §3

[10] = test system: Chaetoceros muelleri CCMP1318; assay: Algaecidal assay, cell counts by flow cytometry and microscopy; type: cell-based
Procedure: (§4) The algaecidal effect of Roseobacticide A and B was tested against five axenic microalgae (the Prymnesiophytes Emiliana huxleyi (CCMP372) and Isochrysis sp. (CCMP468), the green alga Tetraselmis suecica (CCMP908), the diatom Chaetoceros muelleri (CCMP1318) and the cryptomonad Rhodomonas salina (CCMP1319)). All strains were grown on L1 media except for CCMP1318, which was grown in L1+Si (Guillard, R. R. L. & Hargraves, P. E., 1993, Phycologia 32: 234-236). All strains were maintained at 24° C. under 12 h:12 h light:dark illumination.
(§5) To perform assays, algal cultures were diluted 1:1 with the medium they were grown in and then 1 mL aliquots were placed in a 48 well microtitre plate and treated with 0.01-0.000000001 mg/mL of Roseobacticide A or B, or alternatively with MeOH solvent, or medium (as controls) and incubated for 24 h at 24° C. under 12 h: 12 h light:dark illumination. Each treatment was monitored microscopically at 2, 12 and 24 h. Cell counts were determined by flow cytometry and compared to the solvent control.
(§6) Flow cytometry. For flow cytometry counts, duplicate 0.5 ml samples were fixed with 0.125% (vol/vol) glutaraldehyde in the dark for 10 min. Cells were then frozen in an ethanol dry ice bath and stored at −80° C. until analyzed. Cell concentrations were measured with an EPICS flow cytometer using red fluorescence and forward angle light scattering properties to identify the cells as previously described (Cavender-Bares, K. K., et al., 1998, Limnol. Oceanogr. 43:1383-1388).

[11] = test system: Emiliana huxleyi CCMP372; assay: as above; type: cell-based; details: for IC50: Emiliana huxleyi CCMP372, 24 h, flow cytometry; for algal cell population damaged yet intact: lowest Roseobacticide concentration tested, microscopy; for effect of incubation on E. huxleyi cells: microscopy at 12 and 24 h
Procedure: as §4, §5, §6

[12] = test system: Isochrysis sp. CCMP468; assay: as above; type: cell-based; details: Isochrysis sp. CCMP468, 24 h, flow cytometry
Procedure: as §4, §5, §6

[13] = test system: Rhodomonas salina CCMP1319; assay: as above; type: cell-based; details: for IC50: Rhodomonas salina CCMP1319, 24 h, flow cytometry
Procedure: as §4, §5, §6

[14] = test system: Tetraselmis suecica CCMP908; assay: as above; type: cell-based; details: Tetraselmis suecica CCMP908, 24 h, flow cytometry
Procedure: as §4, §5, §6

[15] = test system: panel of marine bacteria and B. subtilis 3610; assay: Antibacterial assay against the whole panel of test strains (96 well plate, OD650); type: cell-based; details: 10 μL of 0.5 mg/mL or 0.25 mg/mL, 24 hours, 30° C., all test strains
Procedure: as §2
Roseobacters were grown and tested in YTSS medium, B. subtilis 3610 in LB, and P. tunicate D2 in Marine Broth (Difco 2216). […] The plate was incubated without shaking for 24 hours at 30° C., and the OD650 nm determined on a Molecular Devices 96 well plate reader. […] The OD650 nm for the wells containing Roseobacticide A in all each cases was between 80-100% of the value determined for the respective negative controls.

[16] = test system: algae; assay: Algicidal activity (lysis of algae), summary over algae; type: cell-based; details: read-out: LC50 range, algicidal activity
Procedure: as §4, §5
as §6, with “For flow cytometry counts, duplicate 0.5 ml samples were fixed with 0.125% (vol/vol) glutaraldehyde in the dark for 10 min.” left out

[17] = test system: P. gallaeciensis; assay: Growth (OD650 nm) of P. gallaeciensis cultivated with pCA; type: cell-based, Phaeobacter gallaeciensis; details: 1 mM pCA, YTSS medium, 3 d, triplicate
Procedure: as §1
The profiles shown in FIG. 1B have not been corrected for the lower cell density observed in the presence of pCA.

[18] = test system: S. pomeroyi DSS-3; assay: pCA-dependent changes of HPLC-MS profile; type: cell-based, Silicibacter pomeroyi DSS-3; details: 0.1-3 mM pCA
Procedure: as §1
(§7) The inventors cultured three roseobacter strains—S. pomeroyi DSS-3, Ruegeria sp. R11, and P. gallaeciensis BS107—in the presence of varying pCA concentrations (0.1-3 mM). At various time points, the cultures were extracted with ethyl acetate and analyzed by HPLC-MS. The HPLC-MS profiles from S. pomeroyi and Ruegeria sp. […] In the absence of pCA, these compounds were not produced by P. gallaeciensis under any of the conditions that were investigated.

[19] = test system: Ruegeria sp. R11; assay: pCA-dependent changes of HPLC-MS profile; type: cell-based; details: 0.1-3 mM pCA
Procedure: as §1, §7

[20] = BS107, 72 h, 3 d culture, HPLC-MS ion extraction, read-out: EC50, elicitor concentration where production of roseobacticide B (7) is half-maximal

COc1cc(/C=C/C(=O)O)cc(OC)c1O [Roseobacticide 15, sinapic acid]
secondary metabolite production by HPLC-MS [1]: production of a variety of new metabolites | EC50 [1, 20]: 430 ± 30 µM

COc1cc(/C=C/C(=O)O)ccc1O [Roseobacticide 16, ferulic acid]
secondary metabolite production by HPLC-MS [1]: production of a variety of new metabolites | EC50 [1, 20]: 160 ± 20 µM

CSc1cccc2c(-c3ccc(O)cc3)c(=O)oc-2c1 [Roseobacticide A]
IC50 [2]: > 160 µM | IC50 [3]: > 160 µM | IC50 [4]: > 160 µM | IC50 [5]: > 160 µM | IC50 [6]: > 160 µM | IC50 [7]: > 160 µM | IC50 [8]: > 160 µM | IC50 [9]: > 160 µM | effect on C. muelleri cell shape ([10]; 3.5 μM, 24 h): major morphological changes | IC50 ([10]; Chaetoceros muelleri CCMP1318, 24 h, flow cytometry): > 35 µM | IC50 [11]: ≥ 2.2 µM | algal cell population damaged yet intact [11]: 20% | effect of incubation on E. huxleyi cells [11]: cell lysis after 24 h, with cellular damage visible after 12 h | IC50 [12]: > 35 µM | IC50 [13]: ≥ 0.1 µM | IC50 ([13]; Rhodomonas salina, 24 h): 0.1 µM | susceptibility of the R. salina population ([13]; dose response, micrographs): Only a subpopulation appears to be susceptible | IC50 [14]: > 35 µM | OD650 nm relative to the respective negative controls [15]: 80-100% | CC50 [16]: 0.1 to 35 µM

CSc1ccccc2c(-c3ccccc3)c(=O)oc1-2 [Roseobacticide B]
IC50 [11]: 0.19 µM and ≥ 0.19 µM | algal cell population damaged yet intact [11]: 48% | effect of incubation on E. huxleyi cells [11]: cell lysis after 24 h, with cellular damage visible after 12 h

CSc1cccc2c(-c3c[nH]c4ccccc34)c(=O)oc-2c1 [Roseobacticide C]
initial bioassays against E. huxleyi [11]: potent antialgal compounds

CSSc1cccc2c(-c3ccccc3)c(=O)oc-2c1 [Roseobacticide E]
initial bioassays against E. huxleyi [11]: potent antialgal compounds

O=C(O)/C=C/c1ccc(O)cc1 [pCA, p-coumaric acid]
secondary metabolite production by HPLC-MS [1]: stimulated the production of a family of compounds | secondary metabolite production by HPLC-MS ([1]; listed as 14): production of a variety of new metabolites | EC50 [1, 20]: 790 ± 30 µM | EC50 ([1]; BS107, FIG. 1C, average of two measurements, read-out: EC50, dose-response of (6) as a function of [pCA]): 790 ± 30 µM | OD650 nm lower than cultures without pCA [17]: 17±8% | changes of HPLC-MS profile [18]: no significant pCA-dependent changes | changes of HPLC-MS profile [19]: no significant pCA-dependent changes
